# Source: patent publication US20250302866A1, “POLYMER AGENTS FOR CARDIOPULMONARY RESUSCITATION” (VIRGINIA COMMONWEALTH UNIVERSITY, priority 2019, published 2025)
# Legend:
# [1] = tested on: rat model of cardiac arrest and cardiopulmonary resuscitation; test: Buccal microcirculation (MFI, PVD) by side-stream dark-field imaging; format: in vivo, Sprague-Dawley rats; settings: 1, 3, and 5 hours after ROSC; PEG-20k vs other 3 groups; p<0.05; FIG. 3
# Method: (§1) Male Sprague-Dawley rats weighing 450-550 g were utilized in this study. After induction of anesthesia with inhalation of CO2 for about 30 seconds, the animals were anesthetized by intraperitoneal injection of pentobarbital (45 mg/kg). Additional doses (10 mg/kg) were administered when required to maintain anesthesia. After no response to stimuli, the animals were shaved. The trachea was orally intubated with a 14-G cannula mounted on a blunt needle (Abbocath-T; Abbott Hospital Products Division, North Chicago, IL, USA) with a 145-degree angled tip. End-tidal CO2 was continuously monitored with a side-stream infrared CO2 analyzer (Capstar-100 Carbon Dioxide Analyzer; CWE, Ardmore, PA) interposed between the tracheal cannula and the ventilator. A conventional lead II EKG was continuously monitored. Through the left external jugular vein, a PE-50 catheter (Becton Dickinson, Sparks, MD, USA) was advanced into the right atrium for measurement of right atrial pressures. A 3-F catheter (Model C-PMS-301J; Cook Critical Care, Bloomington, IN, USA) was advanced through the right external jugular vein into the right ventricle. For blood pressure measurements within the descending aorta and PEG-20k administration, PE-50 catheters were advanced into the descending aorta from the left femoral artery and the right femoral artery respectively. […]
# [2] = tested on: rat model of cardiac arrest and cardiopulmonary resuscitation; test: Coronary perfusion pressure, defibrillations and arrhythmia in a rat model of cardiac arrest and CPR; format: in vivo, Sprague-Dawley rats; settings: mean±SD
# Method: as §1
# [3] = tested on: rat model of cardiac arrest and cardiopulmonary resuscitation; test: Duration of survival after resuscitation; format: in vivo, Sprague-Dawley rats; settings: 6 resuscitated rats in each group
# [4] = tested on: patients with out-of-hospital cardiac arrest; settings: prehospital epinephrine use; cited from earlier work
# [5] = tested on: rat model of cardiac arrest and cardiopulmonary resuscitation; test: Post-resuscitation myocardial function by echocardiography (CO, EF, MPI); format: in vivo, Sprague-Dawley rats; settings: 2, 4, and 6 hours after ROSC; PEG-20k vs other 3 groups, epinephrine vs saline placebo and saline-A; p<0.05; FIG. 2
# Method: as §1
# patients with SCA = settings: cited from earlier work
compound,measurement,setting,value
CNC[C@H](O)c1ccc(O)c(O)c1 [Epinephrine],Buccal microcirculation PVD and MFI values,[1],significantly decreased
same,Arrhythmia duration,[2]; after resuscitation,14.00 ± 5.35
same,Number of defibrillations,"[2]; defibrillations required for conversion to viable rhythm and ROSC, drug infused for 3 minutes after 4 minutes of precordial compression",5.50 ± 2.88
same,Rats survived more than 24 hours,[3],one
same,Chance of ROSC before hospital arrival,[4],increased chance of ROSC
same,Chance of survival and good functional outcomes 1 month after the event,[4],decreased chance of survival and good functional outcomes
same,"PR myocardial function (CO, EF, MPI)",[5],increased the severity of PR myocardial dysfunction
same,Rate of ROSC vs placebo,patients with SCA,significantly higher rate of ROSC than placebo
same,Rate of survival with a favorable neurologic outcome,patients with SCA; vs placebo group,as low as the rate in the placebo group
